Read-outs that look alike come from different tables or passages of the source.
Experiments:
Phytophthora infestans = type: in vivo, Phytophthora infestans on tomato; conditions: applied 24 h before inoculation, assessed 7 days after inoculation
[1] = test system: Leptosphaeria nodorum (LEPTNO); assay: In vitro fungitoxicity of hydrazones with and without copper towards Leptosphaeria nodorum (Example 26); type: cell-based; conditions: 72 h at 25° C.
Phytophthora capsici = assay: In vitro fungitoxicity of hydrazones with and without copper towards Phytophthora capsici (Example 28, Table 3); type: cell-based; conditions: 48 h; for % Inhn Plus copper Observed: copper-plus AS medium (CuCl2, 50 μM)
[2] = hydrazone 50 ppm + 50 μM CuCl2.2H2O, tomato
[3] = Parastagonospora nodorum, 72 h, compound 0.05 μg/mL, copper-minus medium, read-out: LEPTNO % Inhn. Minus Copper Observed
[4] = compound 0.05 μg/mL, copper-plus medium (CuCl2.2H2O)
[5] = Phytophthora capsici, 0.039 μg/mL, copper-minus AS medium, read-out: % Inhn Minus copper Observed
[6] = hydrazone 50 ppm with 50 μM CuCl2.2H2O, tomato late blight
[7] = Parastagonospora nodorum, 72 h, copper-minus medium, test compound Concn. 0.05 μg/mL, read-out: LEPTNO % Inhn. Minus Copper Observed
[8] = copper-plus medium (CuCl2 10 μM), test compound Concn. 0.05 μg/mL

SMILES | TLB % Control (Phytophthora infestans; [2]) [%] | inhibition of growth at 0.05 µg/mL [1, 3] [%] | LEPTNO % Inhn. Plus Copper Observed [1, 4] [%] | melting point [°C] | TLB % Control (Phytophthora infestans; [6]) [%] | inhibition of growth at 0.05 µg/mL [1, 7] [%] | LEPTNO % Inhn. Plus Copper Observed [1, 8] [%] | other results
C=CCc1cccc(/C=N/NC(=O)c2ccccc2)c1O [Example 143] | 64.4 | 2.1 | 98.2 | – | – | – | – | % Inhn Plus copper Observed (Phytophthora capsici; 0.039 μg/mL): 94.5%; inhibition of growth at 0.039 µg/mL (Phytophthora capsici; [5]): 6%
Cc1ccc(C(=O)N/N=C/c2cc(Br)cc(Br)c2O)c(C)c1 [Example 28] | 62.7 | – | 96.8 | – | – | – | – | LEPTNO % Inhn. Minus Copper Observed ([1]; compound 0.05 μg/mL, copper-minus medium): 7.0%; % Inhn Plus copper Observed (Phytophthora capsici; 0.039 μg/mL): 93.8%; inhibition of growth at 0.039 µg/mL (Phytophthora capsici; [5]): 11.4%
O=C(N/N=C/c1cc(Br)cc(Br)c1O)c1cccc(F)c1 [Example 119] | 91.9 | 2.2 | 95.7 | – | – | – | – | % Inhn Plus copper Observed (Phytophthora capsici; 0.039 μg/mL): 95.1%; inhibition of growth at 0.039 µg/mL (Phytophthora capsici; [5]): 37.9%
O=C(N/N=C/c1cc(Cl)cc(Cl)c1O)c1ccc(-c2ccccc2)cc1 [Example 74] | 63.6 | 3 | 95.7 | – | – | – | – | % Inhn Plus copper Observed (Phytophthora capsici; 5 μg/mL): 89.4%; inhibition of growth at 5 µg/mL (Phytophthora capsici; Phytophthora capsici, 5 μg/mL, copper-minus AS medium, read-out: % Inhn Minus copper Observed): 17.2%
O=C(N/N=C/c1ccccc1O)c1cccc(C(F)(F)F)c1 [Example 61] | 60.0 | 3.8 | 93.6 | – | – | – | – | % Inhn Plus copper Observed (Phytophthora capsici; 0.039 μg/mL): 95.6%; inhibition of growth at 0.039 µg/mL (Phytophthora capsici; [5]): 17.6%
O=C(CCc1cc(Br)c(O)c(Br)c1)N/N=C/c1cc(Cl)cc(Cl)c1O [Example 5] | 22.0 | 4.8 | 56.1 | – | – | – | – | % Inhn Plus copper Observed (Phytophthora capsici; 0.039 μg/mL): 93.9%; inhibition of growth at 0.039 µg/mL (Phytophthora capsici; [5]): 18.6%
Nc1ccccc1C(=O)N/N=C/c1cc(Cl)cc(Cl)c1O [Example 91] | 18.0 | 0 | 79.3 | – | – | – | – | % Inhn Plus copper Observed (Phytophthora capsici; 0.039 μg/mL): 93.2%; inhibition of growth at 0.039 µg/mL (Phytophthora capsici; [5]): 52.1%
COc1ccc(O)c(/C=N/NC(=O)c2ccc(Cl)cc2)c1 [Example 207] | 52.7 | 0 | 95.3 | – | – | – | – | % Inhn Plus copper Observed (Phytophthora capsici; 0.039 μg/mL): 88.9%; inhibition of growth at 0.039 µg/mL (Phytophthora capsici; [5]): 0%
O=C(N/N=C/c1ccccc1O)c1ccccc1O [Example 1] | 64.0 | 0.7 | 96.2 | – | – | – | – | % Inhn Plus copper Observed (Phytophthora capsici; 0.039 μg/mL): 87.2%; inhibition of growth at 0.039 µg/mL (Phytophthora capsici; [5]): 9.7%
Oc1c(Cl)cc(Cl)cc1/C=N/NC(=S)c1ccccc1 [Example 52] | – | – | – | – | – | – | – | inhibition of growth at 0.2 µg/mL ([1]; Parastagonospora nodorum, 72 h, compound 0.2 μg/mL, copper-minus medium, read-out: LEPTNO % Inhn. Minus Copper Observed): 12.3%; LEPTNO % Inhn. Plus Copper Observed ([1]; compound 0.2 μg/mL, copper-plus medium (CuCl2.2H2O)): 96.4%; % Inhn Plus copper Observed (Phytophthora capsici; 0.039 μg/mL): 91.2%; inhibition of growth at 0.039 µg/mL (Phytophthora capsici; [5]): 40.6%
Cc1cc(O)c(/C=N/NC(=O)c2ccccc2)cc1Cl [Example 239] | 66.1 | 0.1 | 97.8 | 206 to 208 | – | – | – | –
O=C(N/N=C/c1cc(C(F)(F)F)ccc1O)c1cccc(F)c1 [Example 437] | – | – | – | 188 to 196 | 100.0 | 9.2 | 97.0 | –
O=C(N/N=C/c1cc(C(F)(F)F)cc(C(F)(F)F)c1O)c1cccc(Cl)c1 [Example 336] | – | – | – | 230 to 233 | 98.0 | 16.6 | 97.8 | –
C/C(=N\NC(=O)c1ccccc1O)c1cc(F)cc(F)c1O [Example 583] | – | – | – | 308 to 323 | 100.0 | 13.2 | 98.0 | –
O=C(N/N=C/c1c(C(F)(F)F)ccc(Cl)c1O)c1ccc(F)cc1 [Example 450] | – | – | – | 231 to 233 | 100.0 | 1.1 | 93.5 | –
COc1ccccc1C(=O)N/N=C(\C)c1cc(Cl)cc(Cl)c1O [Example 141] | 52.0 | 1.5 | 96.2 | 307 to 310 | – | – | – | –
C/C(=N\NC(=O)Cc1ccc(F)cc1)c1cc(Cl)cc(Cl)c1O [Example 17] | 69.0 | 9.4 | 95.9 | 209 to 213 | – | – | – | –
C/C(=N\NC(=O)c1ccccc1C)c1cc(Br)ccc1O [Example 288] | 26.0 | 1.8 | 98.2 | 201 to 203 | – | – | – | –
C/C(=N\NC(=O)c1cccc(C)c1)c1cc(F)cc(F)c1O [Example 574] | – | – | – | 215 to 216 | 93.0 | 2.8 | 98.3 | –

SMILES | TLB % Control (Phytophthora infestans; [2]) [%] | inhibition of growth at 0.05 µg/mL [1, 3] [%] | LEPTNO % Inhn. Plus Copper Observed [1, 4] [%] | melting point [°C] | TLB % Control (Phytophthora infestans; [6]) [%] | inhibition of growth at 0.05 µg/mL [1, 7] [%] | LEPTNO % Inhn. Plus Copper Observed [1, 8] [%] | other results
COc1ccc(Br)c(/C=N/NC(=O)c2ccccc2)c1O [Example 243] | 86.4 | 5.3 | 96.7 | 187 to 189 | – | – | – | –
Cc1cc(C)cc(C(=O)N/N=C/c2cc(Cl)ccc2O)c1 [Example 134] | 57.0 | 4.2 | 95.3 | 196 to 199 | – | – | – | –
C/C(=N\NC(=O)c1ccc(C(F)(F)F)cc1)c1cccc(Cl)c1O [Example 501] | – | – | – | 250 to 256 | 89.0 | 0.5 | 98.0 | –
O=C(N/N=C/c1ccc(Cl)cc1O)c1ccc([N+](=O)[O-])cc1 [Example 394] | – | – | – | 278 to 281 | 71.0 | 8 | 95.9 | –
C/C(=N\NC(=O)c1ccc(C(F)(F)F)cc1)c1cc(Cl)ccc1O [Example 513] | – | – | – | 271 to 273 | 53.0 | 14 | 98.0 | –
Cc1cccc(C(=O)N/N=C/c2ccc(Cl)cc2O)c1 [Example 387] | – | – | – | 201 to 203 | 87.0 | 13.5 | 96.9 | –
C/C(=N\NC(=O)c1cccc(C)c1)c1cc(Cl)ccc1O [Example 506] | – | – | – | 222 to 228 | 44.0 | 2.7 | 97.5 | –
Cc1ccc(O)c(C(=O)N/N=C/c2cc(Cl)cc(Cl)c2O)c1 [Example 258] | 87.0 | 34.1 | 97.4 | 277 to 280 | – | – | – | –
COc1ccc(O)c(/C(C)=N/NC(=O)c2ccc(C)cc2)c1 [Example 264] | 21.0 | 6 | 98.4 | 159 to 162 | – | – | – | –
C/C(=N\NC(=O)c1ccccc1Br)c1ccc(Cl)cc1O [Example 462] | – | – | – | 187 to 188 | 86.0 | 0 | 95.0 | –
Cc1ccc(C(=O)N/N=C/c2cc(C(F)(F)F)ccc2O)c(O)c1 [Example 445] | – | – | – | 264 to 271 | 90.0 | 13.2 | 100.0 | –
Cc1cccc(C(=O)N/N=C/c2cc(C(F)(F)F)cc(C(F)(F)F)c2O)c1 [Example 332] | – | – | – | 210 to 213 | 89.0 | 2 | 93.9 | –
C/C(=N\NC(=O)c1cccc(Cl)c1)c1cccc([N+](=O)[O-])c1O [Example 273] | 44.0 | 0.4 | 97.7 | 251 to 286 | – | – | – | –
C/C(=N\NC(=O)c1ccccc1Cl)c1ccc(Cl)cc1O [Example 255] | 28.0 | 3.6 | 98.2 | 183 to 184 | – | – | – | –
Cc1cccc(C(=O)N/N=C/c2cccc(C(F)(F)F)c2O)c1 [Example 343] | – | – | – | 188 to 190 | 97.0 | 2.8 | 95.4 | –
Cc1ccc(C(=O)N/N=C/c2cc(C(F)(F)F)cc(C(F)(F)F)c2O)cc1 [Example 333] | – | – | – | 274 to 277 | 85.0 | 16.2 | 93.2 | –
COc1cccc(/C(C)=N/NC(=O)c2ccc(Br)cc2)c1O [Example 465] | – | – | – | 176 to 177 | 93.0 | 1.7 | 96.5 | –
C/C(=N\NC(=O)c1ccccc1Cl)c1cc(Br)ccc1O [Example 291] | 67.0 | 2.2 | 95.4 | 198 to 201 | – | – | – | –
